Reference: paper PMC5839409, “Targeting intracellular B2 receptors using novel cell-penetrating antagonists to arrest growth and induce apoptosis in human triple-negative breast cancer” (Oncotarget, 2018)

Tests used:
MDA-MB-231 cells [1] = experiment: Annexin V/PI apoptosis and beta-galactosidase senescence assays; type: cell-based, human; conditions: Annexin V and active caspase-3 positivity 24h; β-galactosidase 72h
Protocol: The effect of B2RAs on cellular senescence was assessed using the Senescence β-Galactosidase Staining Kit (Cell Signaling). MDA-MB-231 cells were plated at 500 000 cells/well in 6-well plates, and serum-starved right before the beginning of treatments. Cells were treated with and without the B2RAs at the indicated concentrations for 72 h. At the end of treatment, surviving cells were fixed with 2% formaldehyde, 0.2% glutaraldehyde for 15 min at room temperature. Fixed cells were then washed and stained with fresh senescence-associated β-galactosidase stain solution (sodium phosphate buffer, pH 6.0, containing 1mg of X-gal (5-bromo-4-chloro-3-indolyl-β-d-galactopyranoside)/ml 40 mM citric acid, 5 mM potassium ferrocyanide, 5 mM potassium ferricyanide, 150 mM NaCl, 2 mM MgCl2) at 37°C. Staining was detected by light microscopy. As a positive control for senescence, we serum starved porcine cerebral microvascular endothelial cells (pCMVEC) (kindly provided by S Chemtob) for 48 h.
MDA-MB-231 and COS-1 cells were plated at 500,000/well in 6-well plates containing medium (10% FBS/DMEM), and allowed to adhere for about 18 h. On the next day, cells were serum-starved and then treated with and without the B2RAs at the indicated concentrations for 24 h. To assess induction of apoptosis due to treatment, we used the Annexin-V-FLUOS Staining kit (Roche) according to manufacturer’s specifications. Briefly, at the end of treatments, cells were harvested, rinsed and incubated in 100 µl of Annexin-V-FLUOS labeling solution (containing 2 µl of Annexin-V-Fluos reagent and 1 µl of PI (15 µg/ml)) for 15 min at room temperature. Cells were analyzed on a FACSCanto II flow cytometer (BD Biosciences). Early stage apoptosis was measured using annexin V-Fluos (RocheMolecular Biochemicals) in conjunction with PI (Sigma) to distinguish among early apoptosis and late apoptosis/necrosis. Bar diagram showing the distribution of early, late/necrotic cell populations.

MDA-MB-231 cells [2] = experiment: MTT cytotoxicity (cell viability) assay; type: cell-based, human; conditions: MTT assay after 72h drug exposure; means ± s.e.m., n = 6 to 8; read-out: IC50 values (cytocidal activity)
Protocol: Cell proliferation assay on MDA-MB-231 cells was determined with colorimetric MTT as we described. Briefly, cells were seeded in a 96 wells plate at 2,000 cells/well in DMEM media supplemented with 10% FBS for 24h at 37°C. Cells were then incubated with and without the B2RAs at the indicated concentrations for the time shown. At the end of treatment period, MTT (0.25 mg/ml) was added to the cells and incubated for 1h30 at 37°C. Thereafter, the cell medium was removed, the formazan product solubilized in acidified isopropanol (100 µl of 1N HCl/anhydrous isopropanol 1:25) and the absorbance determined at 570 nm with an ELISA microplate reader (Spectra Max Plus, Molecular Devices, Sunnyvale, CA). For assessing the cytotoxicity of B2RAs and chemotherapeutic agents (carmustine, doxorubicin, carboplatin, temozolomide and paclitaxel), cells were grown to confluency in multi-well plates and exposed to starving media (DMEM without FBS) for 24h before beginning of the antagonist treatment. Cells were then incubated with MTT and treated exactly as described above. Cell viability was expressed as a percentage of optical density (OD) values obtained upon treatment relative to control.

MDA-MB-231 cells [3] = experiment: Drug-drug synergy experiments (MTT, combination index); type: cell-based, human; conditions: IC25 ratios, 72h, CalcuSyn
Protocol: Interactions (synergy, additive, antagonistic activities) between CP-B2RAs (FR173657 and NG68) and chemotherapeutic drugs (doxorubicin and paclitaxel) were evaluated using MTT standard assays. Twenty-four hours after seeding, cells were treated with CP-B2RAs, the other testing drug, or in combination. For combination testing, CP-B2RAs or the other testing drugs were added to plate in triplicate wells in ratios of IC25 (IC25A: IC25B), and cells are incubated in drug-treated medium for 72h and cell viability determined by MTT. Synergy was determined by calculating combination index (CI) value with the formula CI = (CA,X / ICx,A) + (CB,X / ICx,B), where CA,X and CB,X are concentrations of drug A and drug B used in combination to achieve x% drug effect. ICx,A and ICx,B are concentrations for single agents to achieve the same effect. A CI of less than, equal to, and more than 1 indicates synergy, additivity, and antagonism, respectively.

human B2R = biological target: T1, human B2R (Homo sapiens, UniProt P30411); conditions: living adherent HEK-293T cells transiently transfected with hB2R; means ± s.e.m.; ref [34]; read-out: Binding hB2R-HEK293T IC50; cited from earlier work
T1 construct: expressed in transfected cells; host or cells: HEK-293T
T1 sequence (P30411 1-391): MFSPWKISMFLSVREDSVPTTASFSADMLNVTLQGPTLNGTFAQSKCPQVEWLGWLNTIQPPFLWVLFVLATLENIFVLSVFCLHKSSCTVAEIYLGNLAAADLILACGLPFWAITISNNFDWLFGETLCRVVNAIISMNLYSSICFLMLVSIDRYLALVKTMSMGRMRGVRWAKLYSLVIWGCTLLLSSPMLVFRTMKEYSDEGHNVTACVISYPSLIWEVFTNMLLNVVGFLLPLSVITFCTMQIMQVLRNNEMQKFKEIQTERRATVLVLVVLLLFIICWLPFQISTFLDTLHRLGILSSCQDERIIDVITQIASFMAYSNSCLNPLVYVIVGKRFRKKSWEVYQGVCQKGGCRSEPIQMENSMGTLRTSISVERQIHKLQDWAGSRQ

MDA-MB-231 cells [4] = experiment: PI staining cell cycle analysis by flow cytometry; type: cell-based, human; conditions: 24 h treatment; HOE 140 up to 100 μM
Protocol: MDA-MB-231 were plated at 500,000/plate in 10 cm plates containing medium (10% FBS/DMEM), and allowed to adhere for about 18 h. Thereafter, cells were serum-starved and treated with and without the B2RAs at the indicated concentrations for 24 h. At the end of treatments, cells were harvested, rinsed and fixed with ice cold ethanol 95%, for 2 h at 4°C. Fixed cells were rehydrated with 800 µl PBS for 30 min, and then washed again with PBS to remove all traces of ethanol. Cells were treated with RNase for 30 min prior to staining. PI was added to cell suspension at a concentration of 15 µg/ml and incubated overnight at 4°C. PI staining was assessed by flow cytometry using a FACSCanto II flow cytometer (BD Biosciences).

Q: With `CC(=O)Nc1ccc(/C=C/C(=O)NCC(=O)N(C)c2ccc(Cl)c(COc3cccc4ccc(C)nc34)c2Cl)cn1` [FR 173657] as the molecule, how does the “induction of apoptosis / senescence” value (MDA-MB-231 cells [1]) read?
A: underwent apoptosis, but not senescence

Q: What about the IC50 (MDA-MB-231 cells [2]) of the same molecule?
A: 20 ± 1 µM

Q: And the “combination index (CI)” value (MDA-MB-231 cells [3]; combination with doxorubicin)?
A: below 1

Q: What about the “combination index (CI)” value (MDA-MB-231 cells [3]; combination with paclitaxel) of the same molecule?
A: below 1

Q: What about the IC50 (human B2R) of the same molecule?
A: 0.037 ± 0.0016 µM

Q: And the cell cycle distribution (MDA-MB-231 cells [4])?
A: tend to induce G0/G1 cell cycle arrest
